Literature values as cited in US11206824B2, “Gas delivery device comprising a gas releasing molecule and a gas permeable membrane” (Julius-Maximilians-Universitaet Wuerzburg, priority 2015, dated 2021).

How the values were obtained:
rodent liver = conditions: 50 μM in modified UW solution, 48 h cold ischemia
rodent kidney grafts = conditions: 1 ml, 100 μmol/L in UW solution, 26 h cold preservation
[1] = system: liver transplantation associated I/R injury; conditions: pre-treatment of donors, inhaled
[2] = system: renal warm ischemia reperfusion injury; conditions: i.v. 20 mg/kgBW, mice

Compound: NCC(=O)O.[C-]#[O+].[C-]#[O+].[C-]#[O+].[Cl][Ru] [CORM-3, tricarbonylchloro ruthenium-glycinato]
- perfusion flow, intrahepatic resistance and metabolic capacity (rodent liver): improved
- cellular and graft injury and survival (rodent kidney grafts): significant impact on decreasing cellular and graft injury, and improving survival

Compound: [C-]#[O+] [CO, carbon monoxide]
- liver transplantation associated I/R injury [1]: ameliorates

Compound: [C-]#[O+].[C-]#[O+].[C-]#[O+].[C-]#[O+].[C-]#[O+].[C-]#[O+].[Cl][Ru][Cl].[Cl][Ru][Cl] [CORM-2, tricarbonyldichlororuthenium(II) dimer]
- protection against lethal renal warm ischemia reperfusion injury [2]: almost completely protects
